Measurements as given in ChEMBL document CHEMBL1201862, “PubChem BioAssay data set” (2004).
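Where inhibition never reached the appropriate level, the endpoint shown equals the highest concentration tested. Otherwise, values were interpolated linearly from a five-concentration, 48-hour dose response in 96-well plates. At the GI50, growth is halved.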 Calls of active or inactive are those of the source. Cut-off read from the data, not from the text of the source: active = GI50 up to about 1.1 µM and inactive = higher.

Assays:
Test in all cases: NCI anticancer screen, dose series, 48 h
DLD-1 = test system: DLD-1
K562 = test system: K562
UACC-257 = test system: UACC-257
KM-20L2 = test system: KM-20L2
ACHN = test system: ACHN
EKVX = test system: EKVX
HL-60 = test system: HL-60
SK-MEL-28 = test system: SK-MEL-28
SK-OV-3 = test system: SK-OV-3
OVCAR-5 = test system: OVCAR-5
A549 = test system: A549
MOLT-4 = test system: MOLT-4
CCRF-CEM = test system: CCRF-CEM
SNB-75 = test system: SNB-75
UO-31 = test system: UO-31
LOX IMVI = test system: LOX IMVI
HCC 2998 = test system: HCC 2998
RPMI-8226 = test system: RPMI-8226
SN12C = test system: SN12C
KM12 = test system: KM12
SNB-78 = test system: SNB-78
TK-10 = test system: TK-10
SF-295 = test system: SF-295
SK-MEL-5 = test system: SK-MEL-5
M14 = test system: M14
IGROV-1 = test system: IGROV-1
A498 = test system: A498
SR = test system: SR
U-251 = test system: U-251
HCT-116 = test system: HCT-116
OVCAR-4 = test system: OVCAR-4
UACC-62 = test system: UACC-62
SF-268 = test system: SF-268
XF498 = test system: XF498
HOP-18 = test system: HOP-18
HOP-62 = test system: HOP-62
M19-MEL = test system: M19-MEL
HCT-15 = test system: HCT-15
NCI-H23 = test system: NCI-H23
NCI-H522 = test system: NCI-H522
NCI-H460 = test system: NCI-H460
SNB-19 = test system: SNB-19
786-0 = test system: 786-0
LXFL 529 = test system: LXFL 529
SW-620 = test system: SW-620
CAKI-1 = test system: CAKI-1
HOP-92 = test system: HOP-92
HT-29 = test system: HT-29
DMS-114 = test system: DMS-114
DMS-273 = test system: DMS-273
OVCAR-3 = test system: OVCAR-3
SF-539 = test system: SF-539
OVCAR-8 = test system: OVCAR-8
SK-MEL-2 = test system: SK-MEL-2
COLO 205 = test system: COLO 205
NCI-H226 = test system: NCI-H226
Malme-3M = test system: Malme-3M
RXF 393 = test system: RXF 393

## NC12CC3CC(C1)CC(C(=O)O)(C3)C2
DLD-1
  GI50: > 100 µM (inactive)
K562
  GI50: 2.73 µM (inactive)
UACC-257
  GI50: > 100 µM (inactive)
KM-20L2
  GI50: > 100 µM (inactive)
ACHN
  GI50: > 100 µM (inactive)
EKVX
  GI50: > 100 µM (inactive)
HL-60
  GI50: > 100 µM (inactive)
SK-MEL-28
  GI50: > 100 µM (inactive)
SK-OV-3
  GI50: > 100 µM (inactive)
OVCAR-5
  GI50: > 100 µM (inactive)
A549
  GI50: > 100 µM (inactive)
MOLT-4
  GI50: > 100 µM (inactive)
CCRF-CEM
  GI50: > 100 µM (inactive)
SNB-75
  GI50: > 100 µM (inactive)
UO-31
  GI50: > 100 µM (inactive)
LOX IMVI
  GI50: > 100 µM (inactive)
HCC 2998
  GI50: > 100 µM (inactive)
RPMI-8226
  GI50: > 100 µM (inactive)
SN12C
  GI50: > 100 µM (inactive)
KM12
  GI50: > 100 µM (inactive)
SNB-78
  GI50: > 100 µM (inactive)
TK-10
  GI50: > 100 µM (inactive)
SF-295
  GI50: > 100 µM (inactive)
SK-MEL-5
  GI50: > 100 µM (inactive)
M14
  GI50: > 100 µM (inactive)
IGROV-1
  GI50: > 100 µM (inactive)
A498
  GI50: > 100 µM (inactive)
SR
  GI50: > 100 µM (inactive)
U-251
  GI50: > 100 µM (inactive)
HCT-116
  GI50: > 100 µM (inactive)
OVCAR-4
  GI50: > 100 µM (inactive)
UACC-62
  GI50: > 100 µM (inactive)
SF-268
  GI50: > 100 µM (inactive)
XF498
  GI50: > 100 µM (inactive)
HOP-18
  GI50: > 100 µM (inactive)
HOP-62
  GI50: > 100 µM (inactive)
M19-MEL
  GI50: > 100 µM (inactive)
HCT-15
  GI50: > 100 µM
NCI-H23
  GI50: > 100 µM (inactive)
NCI-H522
  GI50: > 100 µM (inactive)
NCI-H460
  GI50: > 100 µM (inactive)
SNB-19
  GI50: > 100 µM (inactive)
786-0
  GI50: > 100 µM (inactive)
LXFL 529
  GI50: > 100 µM (inactive)
SW-620
  GI50: > 100 µM (inactive)
CAKI-1
  GI50: > 100 µM (inactive)
HOP-92
  GI50: > 100 µM (inactive)
HT-29
  GI50: > 100 µM (inactive)
DMS-114
  GI50: > 100 µM (inactive)
DMS-273
  GI50: > 100 µM (inactive)
OVCAR-3
  GI50: > 100 µM (inactive)
SF-539
  GI50: > 100 µM (inactive)
OVCAR-8
  GI50: > 100 µM (inactive)

## Clc1ccc(C2SCc3nc4ccccc4n32)cc1Cl (stereo unspecified)
DLD-1
  GI50: 12.6 µM (inactive)
K562
  GI50: 8.34 µM (inactive)
ACHN
  GI50: 13 µM (inactive)
EKVX
  GI50: 14.4 µM (inactive)
HL-60
  GI50: 5.9 µM (inactive)
SK-MEL-28
  GI50: 12.5 µM (inactive)
SK-OV-3
  GI50: 21.4 µM (inactive)
OVCAR-5
  GI50: 10.5 µM (inactive)
A549
  GI50: 13.4 µM (inactive)
MOLT-4
  GI50: 17.1 µM (inactive)
SK-MEL-2
  GI50: 16.2 µM (inactive)
CCRF-CEM
  GI50: 23.7 µM (inactive)
SNB-75
  GI50: 3.25 µM (inactive)
LOX IMVI
  GI50: 13.1 µM (inactive)
RPMI-8226
  GI50: 11.4 µM (inactive)
SN12C
  GI50: 12.6 µM (inactive)
KM12
  GI50: 11.8 µM (inactive)
SNB-78
  GI50: 12.3 µM (inactive)
COLO 205
  GI50: 20.3 µM (inactive)
TK-10
  GI50: 13 µM (inactive)
SF-295
  GI50: 11.9 µM (inactive)
SK-MEL-5
  GI50: 9.08 µM (inactive)
M14
  GI50: 13.2 µM (inactive)
IGROV-1
  GI50: 17.3 µM (inactive)
NCI-H226
  GI50: 25.2 µM (inactive)
SR
  GI50: 13.9 µM (inactive)
U-251
  GI50: 16 µM (inactive)
HCT-116
  GI50: 13.2 µM (inactive)
OVCAR-4
  GI50: 13.1 µM (inactive)
UACC-62
  GI50: 13.2 µM (inactive)
SF-268
  GI50: 15.9 µM (inactive)
XF498
  GI50: 12.1 µM (inactive)
HOP-18
  GI50: < 0.01 µM (active)
HOP-62
  GI50: 14.5 µM (inactive)
M19-MEL
  GI50: > 10 µM (inactive)
HCT-15
  GI50: 13.3 µM
NCI-H23
  GI50: 12.6 µM (inactive)
NCI-H522
  GI50: 11.5 µM (inactive)
NCI-H460
  GI50: 13.5 µM (inactive)
Malme-3M
  GI50: 18.8 µM (inactive)
SNB-19
  GI50: 10.6 µM (inactive)
786-0
  GI50: 13.8 µM (inactive)
RXF 393
  GI50: 4.2 µM (inactive)
LXFL 529
  GI50: 11.8 µM (inactive)
SW-620
  GI50: 15.3 µM (inactive)
CAKI-1
  GI50: 14.1 µM (inactive)
HOP-92
  GI50: 11.2 µM (inactive)
HT-29
  GI50: 15.1 µM (inactive)
DMS-114
  GI50: 14.8 µM (inactive)
OVCAR-3
  GI50: 10.5 µM (inactive)
SF-539
  GI50: 17.1 µM (inactive)
OVCAR-8
  GI50: 13.7 µM (inactive)

## COc1ccc(/C=C2\C(=O)N(C(=O)Cc3ccccc3)N=C2C)cc1OC
K562
  GI50: > 100 µM (inactive)
UACC-257
  GI50: > 100 µM (inactive)
ACHN
  GI50: > 100 µM (inactive)
EKVX
  GI50: > 100 µM (inactive)
HL-60
  GI50: > 100 µM (inactive)
SK-MEL-28
  GI50: > 100 µM (inactive)
OVCAR-5
  GI50: > 100 µM (inactive)
A549
  GI50: > 100 µM (inactive)
MOLT-4
  GI50: > 100 µM (inactive)
SK-MEL-2
  GI50: > 100 µM (inactive)
CCRF-CEM
  GI50: > 100 µM (inactive)
SNB-75
  GI50: > 100 µM (inactive)
UO-31
  GI50: > 100 µM (inactive)
LOX IMVI
  GI50: > 100 µM (inactive)
HCC 2998
  GI50: > 100 µM (inactive)
RPMI-8226
  GI50: > 100 µM (inactive)
SN12C
  GI50: > 100 µM (inactive)
KM12
  GI50: > 100 µM (inactive)
SNB-78
  GI50: > 100 µM (inactive)
COLO 205
  GI50: > 100 µM (inactive)
TK-10
  GI50: > 100 µM (inactive)
SF-295
  GI50: > 100 µM (inactive)
M14
  GI50: > 100 µM (inactive)
NCI-H226
  GI50: > 100 µM (inactive)
SR
  GI50: > 100 µM (inactive)
HCT-116
  GI50: > 100 µM (inactive)
OVCAR-4
  GI50: > 100 µM (inactive)
SF-268
  GI50: > 100 µM (inactive)
XF498
  GI50: > 100 µM (inactive)
HOP-18
  GI50: > 100 µM (inactive)
HOP-62
  GI50: > 100 µM (inactive)
M19-MEL
  GI50: > 100 µM (inactive)
HCT-15
  GI50: > 100 µM
NCI-H23
  GI50: > 100 µM (inactive)
NCI-H522
  GI50: > 100 µM (inactive)
Malme-3M
  GI50: > 100 µM (inactive)
SNB-19
  GI50: > 100 µM (inactive)
786-0
  GI50: > 100 µM (inactive)
SW-620
  GI50: > 100 µM (inactive)
CAKI-1
  GI50: > 100 µM (inactive)
HT-29
  GI50: > 100 µM (inactive)
DMS-114
  GI50: > 100 µM (inactive)
DMS-273
  GI50: > 100 µM (inactive)
OVCAR-3
  GI50: > 100 µM (inactive)
SF-539
  GI50: > 100 µM (inactive)
OVCAR-8
  GI50: > 100 µM (inactive)
